Reference: patent publication US7671061B2, “Methods and compositions for treating pain” (Hydra Biosciences, Inc., priority 2005, dated 2010)
pIC50: −log10 of the molar value.

These molecules were tested against T1, hTRPA1 (Homo sapiens, UniProt O75762, K186N) (assay: High throughput Ca2+ fluorescence (Fluo4) assay, AITC stimulation). Settings: Table 1; read-out: hTRPA1 Fluo4 IC50.
T1 construct: expressed in transfected cells; host or cells: HEK293/TREx (Invitrogen), induced with tetracycline
Assay type: cell-based
Excerpt: The assay depended on detection of the rise in intracellular Ca^2+ concentration ([Ca^2+]i) following channel activation in cells inducibly expressing the TRPA1 channel. Ca^2+ rise was quantified with the use of fluorescent Ca^2+ indicators that were loaded into cells and thereafter indicated the [Ca^2+]i. Ca^2+ influx followed activation of the TRPA1 channel. Compounds inhibiting the [Ca^2+]i rise were considered hits for further investigation.
These cells were maintained in the growth medium recommended by the manufacturer supplemented with 100 μg/ml hygromycin to promote retention of the TRPA1 construct. After growing to near confluency, cells were plated at a density of ˜25,000 cells/well in 384 well CellBind plates (Corning) in the presence of 1 μg/ml tetracycline, and allowed to grow for 20-30 hrs. A nearly confluent monolayer resulted. Cells were then loaded with Ca^2+ dye: Fura-2/AM or Fluo4/AM was added to the wells to a final concentration of 2 μM or 1 μM, respectively, and incubated for 80 min or 60 min, respectively, at room temperature. […] Frames were acquired at a rate of 0.2 Hz. During the assay, the plates were continuously […], with pipette mixing of wells following addition of each reagent. For the screening assay, 13 μl of a diluted stock (at 50 μM) was added to each well for 2 minutes following the collection of a short (4 frame) baseline. […] Data was collected for ˜3 minutes following addition of AITC, where the fluorescent intensity (for Fluo4) and the F340/F380 ratio (for Fura-2) were proportional to the [Ca^2+]i. Negative controls consisted of HEK293/TREx TRPA1 cells exposed to AITC, but no compound. […] These controls defined a screening window, and “hits” were defined as those compounds inhibiting the fluorescence response by at least 40%. IC50 values were determined for compounds defined as “hits.” The Fluo4 cell-based fluorescence assay was used to determine the intracellular Ca^2+ concentration in the presence of varying drug concentration. […] Compounds were tested in triplicate at all concentrations. Standard software was used to fit IC50 curves.

T1 sequence (O75762 whole entry K186N): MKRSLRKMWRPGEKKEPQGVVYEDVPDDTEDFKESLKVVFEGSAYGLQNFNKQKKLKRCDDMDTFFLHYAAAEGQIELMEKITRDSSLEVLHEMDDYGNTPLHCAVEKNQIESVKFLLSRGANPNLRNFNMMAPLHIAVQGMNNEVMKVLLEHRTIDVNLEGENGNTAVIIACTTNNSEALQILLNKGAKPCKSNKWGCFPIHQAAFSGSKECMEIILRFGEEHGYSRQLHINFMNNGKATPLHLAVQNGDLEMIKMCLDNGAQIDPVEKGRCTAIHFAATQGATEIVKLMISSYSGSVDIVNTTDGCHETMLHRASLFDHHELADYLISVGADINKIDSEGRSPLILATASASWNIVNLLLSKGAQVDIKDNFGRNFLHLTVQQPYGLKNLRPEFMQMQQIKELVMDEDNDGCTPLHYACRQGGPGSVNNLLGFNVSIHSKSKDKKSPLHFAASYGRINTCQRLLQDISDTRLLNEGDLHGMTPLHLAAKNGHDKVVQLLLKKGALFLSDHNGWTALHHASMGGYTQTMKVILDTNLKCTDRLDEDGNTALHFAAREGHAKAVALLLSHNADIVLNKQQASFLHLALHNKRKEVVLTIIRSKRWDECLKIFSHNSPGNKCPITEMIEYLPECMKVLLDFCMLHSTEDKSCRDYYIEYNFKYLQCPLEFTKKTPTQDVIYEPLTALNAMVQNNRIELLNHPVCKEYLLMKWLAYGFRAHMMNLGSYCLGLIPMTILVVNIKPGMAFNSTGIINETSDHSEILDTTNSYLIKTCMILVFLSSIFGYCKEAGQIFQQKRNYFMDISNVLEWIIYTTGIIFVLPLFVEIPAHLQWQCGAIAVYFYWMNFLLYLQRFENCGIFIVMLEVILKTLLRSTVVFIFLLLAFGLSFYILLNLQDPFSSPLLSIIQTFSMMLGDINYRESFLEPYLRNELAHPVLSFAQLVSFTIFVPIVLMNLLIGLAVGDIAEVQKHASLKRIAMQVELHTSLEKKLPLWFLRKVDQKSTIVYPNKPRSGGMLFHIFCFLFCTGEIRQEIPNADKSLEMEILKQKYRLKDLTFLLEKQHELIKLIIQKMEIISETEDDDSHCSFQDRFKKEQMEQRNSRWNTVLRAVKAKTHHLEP

SMILES | pIC50
CC1=C(C(=O)N2CCOCC2)C(c2ccc(F)cc2)NC(=O)N1 (stereo not shown) | < 5.00
CC1=C(C(=O)N2CCOCC2)C(c2cccc(Br)c2)NC(=O)N1 (stereo not shown) | < 5.00
CCOC(=O)C1=C(c2ccccc2)N(C)C(=O)NC1c1ccccc1F (stereo not shown) | < 5.00
CCOC(=O)C1=C(c2ccccc2)NC(=O)NC1c1ccccc1Cl (stereo not shown) | < 5.00
CC1=C(C(=O)OC(C)C)C(c2ccccc2Cl)NC(=S)N1 (stereo not shown) | ≥ 5.00
CC1=C(C(=O)OCC(C)C)C(c2ccccc2C(F)(F)F)NC(=O)N1 (stereo not shown) | ≥ 5.30
CC1=C(C(=O)OC2CCC(C)CC2)C(c2ccc(N(C)C)cc2)NC(=O)N1 (stereo not shown) | < 5.00
C=CCOC(=O)C1=C(C)NC(=S)NC1c1ccccc1OCC (stereo not shown) | < 5.00
CC1=C(C(=O)Nc2ccc(Br)cc2)C(c2ccccc2)NC(=O)N1C (stereo not shown) | < 5.00
CC1=C(C(=O)OCCC(C)C)C(c2ccc(Cl)c(Cl)c2)NC(=O)N1 (stereo not shown) | < 5.00
CCOC(=O)C1=C(C)N(C)C(=S)NC1c1ccccc1 (stereo not shown) | < 5.00
COc1ccc(C2NC(=O)N(C)C(C)=C2C(=O)Nc2ccccc2C)cc1 (stereo not shown) | < 5.00
CCCOC(=O)C1=C(C)NC(=O)NC1c1ccc(N(CC)CC)cc1 (stereo not shown) | < 5.00
CC1=C(C(=O)OC(C)C)C(c2cccc(Cl)c2)NC(=O)N1 (stereo not shown) | < 5.00
CC1=C(C(=O)OC(C)C)C(c2cccc(Br)c2)NC(=O)N1 (stereo not shown) | < 5.00
CC1=C(C(=O)OC(C)C)C(c2ccc(Cl)cc2)NC(=O)N1 (stereo not shown) | < 5.00
CCCCCOC(=O)C1=C(C)NC(=O)NC1c1cccc(Br)c1 (stereo not shown) | < 5.00
CCC(C)OC(=O)C1=C(C)NC(=O)NC1c1ccccc1Cl (stereo not shown) | < 5.00
C=CCOC(=O)C1=C(C)NC(=O)NC1c1ccc(N(CC)CC)cc1 (stereo not shown) | < 5.00
CC1=C(C(=O)OCC(F)(F)F)C(c2ccc(N(C)C)cc2)NC(=O)N1 (stereo not shown) | < 5.00
CCCCCOC(=O)C1=C(C)NC(=S)NC1c1ccccc1 (stereo not shown) | < 5.00
C=CCOC(=O)C1=C(C)NC(=O)NC1c1ccc(CC)cc1 (stereo not shown) | < 5.00
CC1=C(C(=O)OCC2CCCCC2)C(c2ccccc2F)NC(=O)N1 (stereo not shown) | < 5.00
CCCCOC(=O)C1=C(C)NC(=O)NC1c1ccc(C)cc1 (stereo not shown) | < 5.00
CCCOC(=O)C1=C(C)NC(=O)NC1c1cccc(Cl)c1 (stereo not shown) | < 5.00
CC1=C(C(=O)OCC(F)(F)F)C(c2ccc(Br)cc2)NC(=O)N1 (stereo not shown) | < 5.00
CCc1ccc(C2NC(=O)NC(C)=C2C(=O)OC2CCCC2)cc1 (stereo not shown) | < 5.00
COC(C)OC(=O)C1=C(C)NC(=O)NC1c1cccc(Cl)c1Cl (stereo not shown) | < 5.00
CC1=C(C(=O)OC2CCCCCC2)C(c2cccc(Cl)c2)NC(=O)N1 (stereo not shown) | < 5.00
CC1=C(C(=O)OC(C)C(C)C)C(c2ccc(C)cc2)NC(=O)N1 (stereo not shown) | < 5.00

Results, then the molecule that gave them:

pIC50 | SMILES
< 5.00 | CC1=C(C(=O)OCCc2ccccc2)C(c2ccccc2)NC(=O)N1 (stereo not shown)
≥ 6.00 | CCOC(=O)C1=C(c2ccc(N(C)C)cc2)NC(=O)NC1c1ccccc1 (stereo not shown)
< 5.00 | CC1=C(C(=O)OCc2ccccc2)C(c2ccccc2F)NC(=O)N1 (stereo not shown)
< 5.00 | CC1=C(C(=O)OCc2ccc(C)cc2)C(c2ccc(F)cc2)NC(=O)N1 (stereo not shown)
≥ 5.30 | CC1=C(C(=O)OCCc2ccccc2)C(c2ccc(Cl)cc2)NC(=O)N1 (stereo not shown)
< 5.00 | CC1=C(C(=O)OC2CCCCC2)C(c2ccc(F)cc2)NC(=O)N1 (stereo not shown)
< 5.00 | C=CCOC(=O)C1=C(C)NC(=O)NC1c1ccc(F)cc1 (stereo not shown)
≥ 5.30 | C=CCOC(=O)C1=C(C)NC(=O)NC1c1ccc(C)cc1 (stereo not shown)
< 5.00 | CCCOC(=O)C1=C(C)NC(=O)NC1c1cccc2ccccc12 (stereo not shown)
< 5.00 | CC1=C(C(=O)OCCc2ccccc2)C(c2ccc(F)cc2)NC(=O)N1 (stereo not shown)
< 5.00 | CC1=C(C(=O)OCC(Cl)(Cl)Cl)C(c2ccccc2)NC(=O)N1 (stereo not shown)
< 5.00 | CC1=C(C(=O)OCc2ccc(C)cc2)C(c2ccccc2)NC(=O)N1 (stereo not shown)
< 5.00 | CC1=C(C(=O)OCc2ccccc2)C(c2ccc(F)cc2)NC(=O)N1 (stereo not shown)
< 5.00 | CC1=C(C(=O)OCc2ccc(C)cc2)C(c2ccccc2F)NC(=O)N1 (stereo not shown)
< 5.00 | CC1=C(C(=O)OCc2ccccc2)C(c2cccc(Cl)c2)NC(=O)N1 (stereo not shown)
< 5.00 | CC1=C(C(=O)OCc2ccc(C)cc2)C(c2ccc(N(C)C)cc2)NC(=O)N1 (stereo not shown)
